This note sets out measurements from US8252737B2, “Antimicrobial peptides and methods of use” (priority 2004, dated 2012).

Values after ≈ are worked out from the molar mass of the structure shown. Like-named read-outs stand apart in the source and are kept apart here.

The nature of series [1]: Circular dichroism spectroscopy of helical structure (benign buffer and 50% TFE). The series is classed as physicochemical. The procedure:
To determine the secondary structure of peptides in different environments, circular dichroism (CD) spectra of the peptide analogs were measured under physiologically related pH and ionic strength (100 mM KCl, 50 mM aq. PO4, pH 7 referred to as benign conditions) and also in 50% TFE to mimic the hydrophobic environment of the membrane. […] On the non-polar face, the native L-Val residue was critical in maintaining α-helical structure. […] Even the substitution with L-Ala, which is known to have the highest α-helical propensity of all 20 amino acids (34), could not stabilize the α-helical structure. […] It is noteworthy that, on the non-polar face, the magnitude of the helical content of L-peptides in benign buffer was related to the hydrophobicity of the substituting amino acids, i.e., NLL>NVL>NAL>NSL, NKL, again showing the importance of hydrophobicity on the non-polar face in maintaining the α-helical structure. […] However, whether L- or D-substitutions were made on the non-polar face, high helical structure could be induced by the hydrophobic environment of 50% TFE, a mimic of the membrane's hydrophobicity and α-helix inducing ability (Table 3).
To determine the secondary structure of the D-enantiomeric peptides in different environments, CD spectra of the peptide analogs were measured under benign conditions (100 mM KCl, 50 mM KH2PO4/K2HPO4, pH 7.4, referred to as KP buffer) and also in 50% trifluoroethanol (TFE) to mimic the hydrophobic environment of the membrane. […] However, in the presence of 50% TFE, all three L-peptides were fully folded α-helical structures with similar ellipticities and helicity (Table 4).
Characterization of Helical Structure—The mean residue molar ellipticities of peptides were determined by circular dichroism (CD) spectroscopy, using a Jasco J-720 spectropolarimeter (Jasco, Easton, Md.), at 25° C. under benign conditions (50 mM KH2PO4/K2HPO4/100 mM KCl, pH 7), as well as in the presence of an α-helix inducing solvent, 2,2,2-trifluoroethanol (TFE) (50 mM KH2PO4/K2HPO4/100 mM KCl, pH 7 buffer/50% TFE). A 10-fold dilution of a ˜500 μM stock solution of the peptide analogs was loaded into a 0.02 cm fused silica cell and its ellipticity scanned from 190 to 250 nm. The values of molar ellipticities of the peptide analogs at a wavelength of 222 nm were used to estimate the relative α-helicity of the peptides.

The subject of series [2] is gram-positive bacteria. The method, then: (§1) Measurement of Antimicrobial Activity—Minimal inhibitory concentrations (MICs) were determined using a standard microtiter dilution method in LB (Luria-Bertani) no-salt medium (10 g of tryptone and 5 g of yeast extract per liter). Briefly, cells were grown overnight at 37° C. in LB and diluted in the same medium. […] Plates were incubated at 37° C. for 24 hours and MICs determined as the lowest peptide concentration that inhibited growth. Alternatively, minimal inhibitory concentrations were determined using a standard microtiter dilution method in a Mueller-Hinton (MH) medium. Briefly, cells were grown overnight at 37° C. in MH broth and diluted in the same medium. […] Plates were incubated at 37° C. for 24 hours and MICs determined as the lowest peptide concentration that inhibited growth. However, for MIC determination of Pseudomonas aeruginosa clinical isolates, brain heart infusion (BH1) medium was used instead of MH broth. In addition, the bacteria were diluted to a final inoculum of 1×10^6 colony-forming units/ml.

The subject of series [3] is gram-negative bacteria. As to the kind of experiment: MIC, microtiter dilution, Gram-negative bacteria (geometric mean of 6 strains). As to conditions: for MIC (μg/ml) GM: geometric mean of MIC values from all 6 Gram-negative strains of Table 11; for MIC (μg/ml) Gram-negative: geometric mean MIC, Table 9; for geometric mean MIC against Gram-negative bacteria: 6 strains of Table 7. The series is classed as cell-based. The procedure: The geometric mean MIC values from 6 microbial strains in this table were calculated to provide an overall evaluation of antimicrobial activity against gram-negative bacteria.
In Table 11, geometric mean MIC was calculated to provide an overall view of antimicrobial activity of the peptides against Gram-negative bacteria and was also used to calculate the therapeutic index.
as §1

Series [4] concerns human erythrocytes. As to the kind of experiment: Hemolytic activity (MHC), Protocol A, 12 hours. Conditions: for minimal hemolytic concentration (MHC): incubation for 12 hours at 37° C. (Tables 7 and 8); for MHC: minimal hemolytic concentration on human red blood cells (hRBC), Table 9. The method, then:
Measurement of Hemolytic Activity—Protocol A: Peptide samples were added to 1% human erythrocytes in phosphate buffered saline (0.08M NaCl; 0.043M Na2PO4; 0.011M KH2PO4) and reactions were incubated at 37° C. for 12 hours in microtiter plates. Peptide samples were diluted 2 fold in order to determine the concentration that produced no hemolysis. […] Hemoglobin release was determined spectrophotometrically at 562 nm. The hemolytic titer was the highest 2-fold dilution of the peptide that still caused release of hemoglobin from erythrocytes. The control for no release of hemoglobin was a sample of 1% erythrocytes without any peptide added. […] Peptide samples were diluted 2 fold in order to determine the concentration that produced no hemolysis. […] Hemoglobin release was determined spectrophotometrically at 570 nm. The hemolytic titer was the highest 2-fold dilution of the peptide that still caused release of hemoglobin from erythrocytes. The control for no release of hemoglobin was a sample of 1% erythrocytes without any peptide added.

The mark [5] stands for this setting: 5° C., 100 mM KCl, 50 mM PO4 pH 7.4.
Setting [6] is: 5° C., relative to D-V681 in 50% TFE.
Where [7] appears, read: 5° C., benign buffer pH 7.4 containing 50% TFE.
The mark [8] stands for this setting: 5° C., pH 7.4 benign, relative to D-V681 in 50% TFE.
Setting [9] is: 25° C., relative to NAL in 50% TFE.
[10] abbreviates: 25° C., benign buffer (100 mM KCl, 50 mM PO4 pH 7.0).
Setting [11] is: 25° C., benign buffer diluted 1:1 (v/v) with TFE.
[12] abbreviates: 25° C., benign buffer, relative to NAL in 50% TFE.

On to `CC[C@H](C)[C@H](NC(=O)[C@H](C)NC(=O)[C@H](CCCCN)NC(=O)[C@H](CC(C)C)NC(=O)[C@H](C)NC(=O)[C@@H](NC(=O)[C@H](Cc1c[nH]cn1)NC(=O)[C@H](CC(C)C)NC(=O)[C@@H](NC(=O)[C@@H](NC(=O)[C@H](CCCCN)NC(=O)[C@@H](C)NC(=O)[C@H](C)NC(=O)[C@H](CO)NC(=O)[C@H](CCCCN)NC(=O)[C@H](Cc1ccccc1)NC(=O)[C@@H](NC(=O)[C@H](CCCCN)NC(=O)[C@H](CC(C)C)NC(=O)[C@H](Cc1ccccc1)NC(=O)[C@H](CO)NC(=O)[C@H](CCCCN)NC(=O)[C@H](Cc1c[nH]c2ccccc12)NC(=O)[C@H](CCCCN)NC(C)=O)[C@@H](C)O)[C@@H](C)O)C(C)C)[C@@H](C)O)C(=O)N[C@@H](CO)C(=O)N[C@@H](CO)C(N)=O` [NAD], for which the results for the “[θ]222 Benign” value in series [1] (setting [5]) and in series [1] (setting [10]) were −4000 deg · cm^2 · dmol^−1 and −2,850 deg · cm^2 · dmol^−1, respectively. Further, the “% helix 50% TFE” value in series [1] (setting [6]) stood at 89%; in series [1] (setting [9]), 85%. Moreover, the “[θ]222 50% TFE” value is on record as −25000 deg · cm^2 · dmol^−1 in series [1] (setting [7]) and −24,650 deg · cm^2 · dmol^−1 in series [1] (setting [11]). The entries for the “% helix Benign” value in series [1] (setting [8]) and in series [1] (setting [12]) were 14% and 10%, respectively. Further, the “MIC (μg/ml) GM” value in series [2] turned out to be 2.8 µg/mL (≈ 0.954 µM); in series [3] it was 3.1 µg/mL (≈ 1.06 µM). For the same compound, the “fold decrease in hemolytic activity compared to the L-diastereomer” value in series [4] was found to be 8. Also, in series [4], the “minimal hemolytic concentration (MHC)” value came out at 250 µg/mL.

For `CC[C@H](C)[C@H](NC(=O)[C@H](C)NC(=O)[C@H](CCCCN)NC(=O)[C@H](CC(C)C)NC(=O)[C@H](C)NC(=O)[C@@H](NC(=O)[C@H](Cc1c[nH]cn1)NC(=O)[C@H](CC(C)C)NC(=O)[C@@H](NC(=O)[C@@H](NC(=O)[C@H](CCCCN)NC(=O)[C@H](C)NC(=O)[C@H](C)NC(=O)[C@H](CO)NC(=O)[C@H](CCCCN)NC(=O)[C@H](Cc1ccccc1)NC(=O)[C@@H](NC(=O)[C@H](CCCCN)NC(=O)[C@H](CC(C)C)NC(=O)[C@H](Cc1ccccc1)NC(=O)[C@H](CO)NC(=O)[C@H](CCCCN)NC(=O)[C@H](Cc1c[nH]c2ccccc12)NC(=O)[C@H](CCCCN)NC(C)=O)[C@@H](C)O)[C@@H](C)O)C(C)C)[C@@H](C)O)C(=O)N[C@@H](CO)C(=O)N[C@@H](CO)C(N)=O` [NAL], in series [1] (setting [9]), the “% helix 50% TFE” value amounted to 100%. In series [1] (setting [11]), the “[θ]222 50% TFE” value is on record as −28,950 deg · cm^2 · dmol^−1. For the same compound, the “% helix Benign” value in series [1] (setting [12]) worked out at 12%. Besides, the “MIC (μg/ml) Gram-positive” value in series [2] was found to be 4.5 µg/mL (≈ 1.53 µM). The “MIC (μg/ml) Gram-negative” value in series [3] came to 3.8 µg/mL (≈ 1.3 µM). In addition, in series [4], the “minimal hemolytic concentration (MHC)” value is 31.2 µg/mL and the “MHC” value came to 31.2 µg/mL.

On to `CC[C@H](C)[C@H](NC(=O)[C@H](C)NC(=O)[C@H](CCCCN)NC(=O)[C@H](CC(C)C)NC(=O)[C@H](C)NC(=O)[C@@H](NC(=O)[C@H](Cc1c[nH]cn1)NC(=O)[C@H](CC(C)C)NC(=O)[C@@H](NC(=O)[C@@H](NC(=O)[C@H](CCCCN)NC(=O)[C@@H](CCCCN)NC(=O)[C@H](C)NC(=O)[C@H](CO)NC(=O)[C@H](CCCCN)NC(=O)[C@H](Cc1ccccc1)NC(=O)[C@@H](NC(=O)[C@H](CCCCN)NC(=O)[C@H](CC(C)C)NC(=O)[C@H](Cc1ccccc1)NC(=O)[C@H](CO)NC(=O)[C@H](CCCCN)NC(=O)[C@H](Cc1c[nH]c2ccccc12)NC(=O)[C@H](CCCCN)NC(C)=O)[C@@H](C)O)[C@@H](C)O)C(C)C)[C@@H](C)O)C(=O)N[C@@H](CO)C(=O)N[C@@H](CO)C(N)=O` [NKD], for which the “% helix 50% TFE” value in series [1] (setting [9]) stood at 82%. Also, the “[θ]222 Benign” value in series [1] (setting [10]) is −2,000 deg · cm^2 · dmol^−1. In addition, the “[θ]222 50% TFE” value in series [1] (setting [11]) is −23,600 deg · cm^2 · dmol^−1. Besides, the “% helix Benign” value in series [1] (setting [12]) was found to be 7%. In addition, in series [2] (geometric mean MIC, Table 9), the “MIC (μg/ml) Gram-positive” value amounted to 18.7 µg/mL (≈ 6.25 µM). Also, the “MIC (μg/ml) Gram-negative” value in series [3] was found to be 7.7 µg/mL (≈ 2.57 µM). The “MHC” value in series [4] was above 250.0 µg/mL.

For the compound `CC[C@H](C)[C@H](NC(=O)[C@H](C)NC(=O)[C@H](CCCCN)NC(=O)[C@H](CC(C)C)NC(=O)[C@H](C)NC(=O)[C@@H](NC(=O)[C@H](Cc1cnc[nH]1)NC(=O)[C@H](CC(C)C)NC(=O)[C@@H](NC(=O)[C@@H](NC(=O)[C@H](CCCCN)NC(=O)[C@H](CCCCN)NC(=O)[C@H](C)NC(=O)[C@H](CO)NC(=O)[C@H](CCCCN)NC(=O)[C@H](Cc1ccccc1)NC(=O)[C@@H](NC(=O)[C@H](CCCCN)NC(=O)[C@H](CC(C)C)NC(=O)[C@H](Cc1ccccc1)NC(=O)[C@H](CO)NC(=O)[C@H](CCCCN)NC(=O)[C@H](Cc1c[nH]c2ccccc12)NC(=O)[C@H](CCCCN)NC(C)=O)[C@@H](C)O)[C@@H](C)O)C(C)C)[C@@H](C)O)C(=O)N[C@@H](CO)C(=O)N[C@@H](CO)C(N)=O` [NKL], the “[θ]222 Benign” value in series [1] (setting [5]) is reported as −1400 deg · cm^2 · dmol^−1; in series [1] (setting [10]), −1,450 deg · cm^2 · dmol^−1. Further, the “% helix 50% TFE” value is 96% in series [1] (setting [6]) and 91% in series [1] (setting [9]). Further, the “[θ]222 50% TFE” value is on record as −27000 deg · cm^2 · dmol^−1 in series [1] (setting [7]) and −26,250 deg · cm^2 · dmol^−1 in series [1] (setting [11]). Also, the “% helix Benign” value in series [1] (setting [8]) and in series [1] (setting [12]) was 5% in each case. In addition, the “MIC (μg/ml) GM” value in series [2] (geometric mean of MIC values from all 6 gram-positive strains of Table 12) was determined as 7.9 µg/mL (≈ 2.64 µM); in series [3], 3.9 µg/mL (≈ 1.3 µM). In addition, the “geometric mean MIC against Gram-negative bacteria” value in series [3] was found to be 3.1 µg/mL. In addition, the “fold improvement on the average MIC compared to V681” value in series [3] (gram-negative bacteria, geometric mean comparison, Table 7) is listed as 2.8. Further, the “fold decrease in hemolytic activity compared to V681” value in series [4] (12 hours) was above 32.

Take Ac-KWKSFLKTFKSALKTVLHTALKAISS-NH2 [NLL]: the “% helix 50% TFE” value in series [1] (setting [9]) is 98%. Also, the “[θ]222 Benign” value in series [1] (setting [10]) is −20,600 deg · cm^2 · dmol^−1. Further, in series [1] (setting [11]), the “[θ]222 50% TFE” value is on record as −28,250 deg · cm^2 · dmol^−1. In addition, in series [1] (setting [12]), the “% helix Benign” value was determined as 71%. Also, the “geometric mean MIC against Gram-negative bacteria” value in series [3] was 12.7 µg/mL. For the same compound, the “minimal hemolytic concentration (MHC)” value in series [4] came out at 7.8 µg/mL.
